Assays:
Format in all cases: cell-based
WEE1 = target: T1, WEE1 (Homo sapiens, UniProt P30291+Q96SW2); test: Western-blot assay, substrate protein degradation in hPBMCs: WEE1; settings: for WEE1 substrate protein remaining %: compounds at 50 nM and 500 nM, 24 hours; for substrate protein remaining % WEE1: 24 hours of compound treatment, 50 nM and 500 nM
T1 construct: effects of the compounds of the present disclosure on the expression of target proteins in cells; endogenous in cells; host or cells: human PBMCs (hPBMCs)

IKZF1 = target: T2, IKZF1 (Homo sapiens, UniProt Q13422+Q96SW2); test: Western-blot assay, substrate protein degradation in hPBMCs: IKZF1; settings: for IKZF1 substrate protein remaining %: compounds at 50 nM and 500 nM, 24 hours; for substrate protein remaining % IKZF1: 24 hours of compound treatment, 50 nM and 500 nM
T2 construct: effects of the compounds of the present disclosure on the expression of target proteins in cells; endogenous in cells; host or cells: human PBMCs (hPBMCs)

IKZF2 = target: T3, IKZF2 (Homo sapiens, UniProt Q96SW2+Q9UKS7); test: Western-blot assay, substrate protein degradation in hPBMCs: IKZF2; settings: for IKZF2 substrate protein remaining %: compounds at 50 nM and 500 nM, 24 hours; for substrate protein remaining % IKZF2: 24 hours of compound treatment, 50 nM and 500 nM
T3 construct: effects of the compounds of the present disclosure on the expression of target proteins in cells; endogenous in cells; host or cells: human PBMCs (hPBMCs)

IKZF3 = target: T4, IKZF3 (Homo sapiens, UniProt Q96SW2+Q9UKT9); test: Western-blot assay, substrate protein degradation in hPBMCs: IKZF3; settings: for IKZF3 substrate protein remaining %: compounds at 50 nM and 500 nM, 24 hours; for substrate protein remaining % IKZF3: 24 hours of compound treatment, 50 nM and 500 nM
T4 construct: effects of the compounds of the present disclosure on the expression of target proteins in cells; endogenous in cells; host or cells: human PBMCs (hPBMCs)

CK1α = target: T5, CK1α (Homo sapiens, UniProt P48729+Q96SW2); test: Western-blot assay, substrate protein degradation in hPBMCs: CK1α; settings: for CK1α substrate protein remaining %: compounds at 50 nM and 500 nM, 24 hours; for substrate protein remaining % CK1α: 24 hours of compound treatment, 50 nM and 500 nM
T5 construct: effects of the compounds of the present disclosure on the expression of target proteins in cells; endogenous in cells; host or cells: human PBMCs (hPBMCs)

GSPT1 = target: T6, GSPT1 (Homo sapiens, UniProt P15170+Q96SW2); test: Western-blot assay, substrate protein degradation in hPBMCs: GSPT1; settings: for GSPT1 substrate protein remaining %: compounds at 50 nM and 500 nM, 24 hours; for substrate protein remaining % GSPT1: 24 hours of compound treatment, 50 nM and 500 nM
T6 construct: effects of the compounds of the present disclosure on the expression of target proteins in cells; endogenous in cells; host or cells: human PBMCs (hPBMCs)
T6 sequence (P15170 whole entry): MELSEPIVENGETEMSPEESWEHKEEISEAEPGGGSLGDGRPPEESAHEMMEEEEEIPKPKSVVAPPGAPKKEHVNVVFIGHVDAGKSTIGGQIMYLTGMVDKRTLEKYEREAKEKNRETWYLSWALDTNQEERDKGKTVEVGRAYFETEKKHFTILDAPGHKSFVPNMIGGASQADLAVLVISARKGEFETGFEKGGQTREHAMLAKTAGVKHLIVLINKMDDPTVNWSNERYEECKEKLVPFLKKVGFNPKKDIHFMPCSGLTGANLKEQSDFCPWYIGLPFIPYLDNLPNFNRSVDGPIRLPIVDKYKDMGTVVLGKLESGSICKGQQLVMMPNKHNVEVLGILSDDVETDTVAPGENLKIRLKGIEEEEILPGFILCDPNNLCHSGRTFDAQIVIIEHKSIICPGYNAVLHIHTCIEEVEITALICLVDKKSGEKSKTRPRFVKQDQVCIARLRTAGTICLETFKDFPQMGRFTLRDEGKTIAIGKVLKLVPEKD
T6 sequence (Q96SW2 whole entry): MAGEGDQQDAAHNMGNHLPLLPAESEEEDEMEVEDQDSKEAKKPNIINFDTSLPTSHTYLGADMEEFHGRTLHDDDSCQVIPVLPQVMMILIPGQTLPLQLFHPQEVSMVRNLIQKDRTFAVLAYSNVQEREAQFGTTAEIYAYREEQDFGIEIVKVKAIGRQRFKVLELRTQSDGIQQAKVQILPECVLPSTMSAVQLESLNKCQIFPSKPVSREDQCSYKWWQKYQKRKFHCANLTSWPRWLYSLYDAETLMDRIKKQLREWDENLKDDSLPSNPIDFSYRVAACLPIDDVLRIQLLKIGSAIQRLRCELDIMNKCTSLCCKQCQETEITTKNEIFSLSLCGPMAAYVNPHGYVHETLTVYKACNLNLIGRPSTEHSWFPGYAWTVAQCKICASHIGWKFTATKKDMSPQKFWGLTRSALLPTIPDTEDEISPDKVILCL
T6 sequence (Q16531 whole entry partner): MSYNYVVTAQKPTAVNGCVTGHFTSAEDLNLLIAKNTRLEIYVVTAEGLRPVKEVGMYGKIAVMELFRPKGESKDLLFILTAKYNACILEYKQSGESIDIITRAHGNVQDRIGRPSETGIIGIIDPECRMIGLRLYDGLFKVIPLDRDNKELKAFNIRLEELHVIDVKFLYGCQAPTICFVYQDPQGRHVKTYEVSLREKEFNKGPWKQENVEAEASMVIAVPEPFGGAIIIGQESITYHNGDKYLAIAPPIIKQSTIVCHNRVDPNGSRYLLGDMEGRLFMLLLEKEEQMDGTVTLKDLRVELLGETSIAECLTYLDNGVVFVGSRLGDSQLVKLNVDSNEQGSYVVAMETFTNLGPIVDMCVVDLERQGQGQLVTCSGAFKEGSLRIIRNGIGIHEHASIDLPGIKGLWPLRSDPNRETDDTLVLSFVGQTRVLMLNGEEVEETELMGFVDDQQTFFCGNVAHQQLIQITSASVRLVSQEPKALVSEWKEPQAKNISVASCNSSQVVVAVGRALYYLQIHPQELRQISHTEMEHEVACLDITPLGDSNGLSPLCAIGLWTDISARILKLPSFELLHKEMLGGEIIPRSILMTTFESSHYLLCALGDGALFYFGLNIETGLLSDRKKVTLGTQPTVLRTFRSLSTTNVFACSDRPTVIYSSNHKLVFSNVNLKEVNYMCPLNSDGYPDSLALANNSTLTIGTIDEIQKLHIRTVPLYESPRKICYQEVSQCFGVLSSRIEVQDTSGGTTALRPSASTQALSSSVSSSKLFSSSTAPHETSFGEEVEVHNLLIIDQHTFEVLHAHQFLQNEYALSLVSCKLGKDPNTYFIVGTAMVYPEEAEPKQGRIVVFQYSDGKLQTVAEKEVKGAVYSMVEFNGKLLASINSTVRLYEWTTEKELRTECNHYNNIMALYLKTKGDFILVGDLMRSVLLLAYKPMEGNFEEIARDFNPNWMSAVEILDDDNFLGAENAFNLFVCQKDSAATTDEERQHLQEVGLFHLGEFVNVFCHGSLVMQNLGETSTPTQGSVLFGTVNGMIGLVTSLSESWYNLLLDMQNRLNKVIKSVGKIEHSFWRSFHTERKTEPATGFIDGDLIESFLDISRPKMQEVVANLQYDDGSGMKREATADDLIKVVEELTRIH

T3 sequence (Q9UKS7 whole entry): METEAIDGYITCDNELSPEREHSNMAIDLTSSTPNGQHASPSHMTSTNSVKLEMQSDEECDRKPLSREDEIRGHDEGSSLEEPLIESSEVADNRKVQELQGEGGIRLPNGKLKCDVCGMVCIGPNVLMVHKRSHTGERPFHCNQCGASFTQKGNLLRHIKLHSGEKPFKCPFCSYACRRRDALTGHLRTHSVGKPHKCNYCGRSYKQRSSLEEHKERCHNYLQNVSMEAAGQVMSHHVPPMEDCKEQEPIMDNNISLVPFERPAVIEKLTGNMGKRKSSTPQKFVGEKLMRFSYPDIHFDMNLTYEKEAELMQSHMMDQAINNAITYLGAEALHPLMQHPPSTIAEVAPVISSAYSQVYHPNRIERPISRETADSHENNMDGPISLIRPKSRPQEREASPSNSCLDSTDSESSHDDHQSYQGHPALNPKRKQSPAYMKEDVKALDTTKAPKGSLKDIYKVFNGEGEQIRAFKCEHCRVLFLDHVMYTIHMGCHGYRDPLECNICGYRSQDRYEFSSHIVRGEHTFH
T3 sequence (Q96SW2 whole entry): as the sequence (Q96SW2 whole entry) above
T3 sequence (Q16531 whole entry partner): as the sequence (Q16531 whole entry partner) above
T2 sequence (Q13422 whole entry): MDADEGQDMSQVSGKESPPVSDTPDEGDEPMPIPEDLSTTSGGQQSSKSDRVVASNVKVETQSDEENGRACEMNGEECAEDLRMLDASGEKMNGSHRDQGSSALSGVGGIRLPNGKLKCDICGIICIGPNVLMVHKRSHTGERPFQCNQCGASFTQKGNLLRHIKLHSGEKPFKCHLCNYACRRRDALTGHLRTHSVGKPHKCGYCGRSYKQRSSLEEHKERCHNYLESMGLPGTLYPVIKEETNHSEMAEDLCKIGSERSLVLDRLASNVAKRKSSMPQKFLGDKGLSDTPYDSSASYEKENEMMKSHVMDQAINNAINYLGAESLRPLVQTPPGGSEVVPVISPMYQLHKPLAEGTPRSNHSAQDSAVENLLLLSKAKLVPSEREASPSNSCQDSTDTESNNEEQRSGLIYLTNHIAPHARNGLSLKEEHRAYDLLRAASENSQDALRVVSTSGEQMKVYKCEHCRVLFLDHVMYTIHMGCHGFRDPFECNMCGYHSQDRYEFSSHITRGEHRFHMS
T2 sequence (Q96SW2 whole entry): as the sequence (Q96SW2 whole entry) above
T2 sequence (Q16531 whole entry partner): as the sequence (Q16531 whole entry partner) above
T4 sequence (Q9UKT9 whole entry): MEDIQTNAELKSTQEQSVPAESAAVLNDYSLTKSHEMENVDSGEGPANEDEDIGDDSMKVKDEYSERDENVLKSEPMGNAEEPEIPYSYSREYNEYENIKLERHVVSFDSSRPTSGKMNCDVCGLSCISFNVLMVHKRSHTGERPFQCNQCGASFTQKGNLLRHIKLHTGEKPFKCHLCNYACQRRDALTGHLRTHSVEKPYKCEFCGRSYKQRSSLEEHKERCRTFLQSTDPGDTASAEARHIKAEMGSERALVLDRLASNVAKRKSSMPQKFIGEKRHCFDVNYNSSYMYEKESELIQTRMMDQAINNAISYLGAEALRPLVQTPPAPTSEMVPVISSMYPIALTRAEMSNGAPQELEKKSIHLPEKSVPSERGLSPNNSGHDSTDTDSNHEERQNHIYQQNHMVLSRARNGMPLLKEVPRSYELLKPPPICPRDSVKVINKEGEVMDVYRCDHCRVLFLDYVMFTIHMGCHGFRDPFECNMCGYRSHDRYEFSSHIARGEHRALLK
T4 sequence (Q96SW2 whole entry): as the sequence (Q96SW2 whole entry) above
T4 sequence (Q16531 whole entry partner): as the sequence (Q16531 whole entry partner) above
T5 sequence (P48729 whole entry): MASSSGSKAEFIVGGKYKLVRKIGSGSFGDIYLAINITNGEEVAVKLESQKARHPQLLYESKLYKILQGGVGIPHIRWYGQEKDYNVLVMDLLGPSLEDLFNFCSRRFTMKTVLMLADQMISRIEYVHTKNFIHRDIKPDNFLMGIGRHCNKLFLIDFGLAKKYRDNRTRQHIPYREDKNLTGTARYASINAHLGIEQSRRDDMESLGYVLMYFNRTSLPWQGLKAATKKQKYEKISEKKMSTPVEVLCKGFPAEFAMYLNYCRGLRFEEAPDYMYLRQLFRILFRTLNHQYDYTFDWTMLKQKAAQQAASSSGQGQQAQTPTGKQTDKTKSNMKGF
T5 sequence (Q96SW2 whole entry): as the sequence (Q96SW2 whole entry) above
T5 sequence (Q16531 whole entry partner): as the sequence (Q16531 whole entry partner) above

SMILES | WEE1 substrate protein remaining % (WEE1) | IKZF1 substrate protein remaining % (IKZF1) | IKZF2 substrate protein remaining % (IKZF2) | IKZF3 substrate protein remaining % (IKZF3) | CK1α substrate protein remaining % (CK1α) | GSPT1 substrate protein remaining % (GSPT1) | substrate protein remaining % WEE1 (WEE1) | substrate protein remaining % IKZF1 (IKZF1) | substrate protein remaining % IKZF2 (IKZF2) | substrate protein remaining % IKZF3 (IKZF3) | substrate protein remaining % CK1α (CK1α) | substrate protein remaining % GSPT1 (GSPT1)
O=C1CCN(N2Cc3cc(CN4CCN(C(c5ccccc5)c5cccnc5)CC4)ccc3C2=O)C(=O)N1 (stereo not drawn) [GT-06376, 1-(1-oxo-5-((4-(phenyl(pyridin-3-yl)methyl)piperazin-1-yl)methyl)isoindolin-2-yl)dihydropyrimidine-2,4(1H,3H)-dione] | A ("A" is defined as 0% ≤ substrate protein remaining % ≤ 80%) | B ("B" is defined as 80%< substrate protein remaining %≤ 100%) | A ("A" is defined as 0% ≤ substrate protein remaining % ≤ 80%) | B ("B" is defined as 80%< substrate protein remaining %≤ 100%) | B ("B" is defined as 80%< substrate protein remaining %≤ 100%) | A ("A" is defined as 0% ≤ substrate protein remaining % ≤ 80%) | – | – | – | – | – | –
O=C1CCN(N2C(=O)c3ccc(CN4CC5CC(C4)N5c4cccc(Cl)c4Cl)cc3C2=O)C(=O)N1 [GT-07434, 5-((6-(2,3-dichlorophenyl)-3,6-diazabicyclo[3.1.1]heptan-3-yl)methyl)-2-(2,4-dioxotetrahydropyrimidin-1(2H)-yl)isoindoline-1,3-dione] | – | – | – | – | – | – | B (80%< substrate protein remaining %≤ 100%) | B (80%< substrate protein remaining %≤ 100%) | B (80%< substrate protein remaining %≤ 100%) | B (80%< substrate protein remaining %≤ 100%) | A (0% ≤ substrate protein remaining % ≤ 80%) | B (80%< substrate protein remaining %≤ 100%)
O=C1CCN(N2C(=O)c3ccc(CN4CCC(c5ccnc(F)c5F)CC4)cc3C2=O)C(=O)N1 [GT-07493, 5-((4-(2,3-difluoropyridin-4-yl)piperidin-1-yl)methyl)-2-(2,4-dioxotetrahydropyrimidin-1(2H)-yl)isoindoline-1,3-dione] | – | – | – | – | – | – | B (80%< substrate protein remaining %≤ 100%) | B (80%< substrate protein remaining %≤ 100%) | B (80%< substrate protein remaining %≤ 100%) | A (0% ≤ substrate protein remaining % ≤ 80%) | A (0% ≤ substrate protein remaining % ≤ 80%) | B (80%< substrate protein remaining %≤ 100%)
O=C1CCN(N2Cc3cc(CN4CCC(C5CCOc6cc(F)ccc65)CC4)ccc3C2=O)C(=O)N1 (stereo not drawn) [GT-07587, 1-(5-((4-(7-fluorochroman-4-yl)piperidin-1-yl)methyl)-1-oxoisoindolin-2-yl)dihydropyrimidine-2,4(1H,3H)-dione] | – | – | – | – | – | – | A (0% ≤ substrate protein remaining % ≤ 80%) | A (0% ≤ substrate protein remaining % ≤ 80%) | B (80%< substrate protein remaining %≤ 100%) | B (80%< substrate protein remaining %≤ 100%) | B (80%< substrate protein remaining %≤ 100%) | A (0% ≤ substrate protein remaining % ≤ 80%)
O=C1CCN(N2Cc3cc(CN4CCC(c5nccc(Cl)c5Cl)CC4)ccc3C2=O)C(=O)N1 [GT-06388, 1-(5-((4-(3,4-dichloropyridin-2-yl)piperidin-1-yl)methyl)-1-oxoisoindolin-2-yl)dihydropyrimidine-2,4(1H,3H)-dione] | B ("B" is defined as 80%< substrate protein remaining %≤ 100%) | B ("B" is defined as 80%< substrate protein remaining %≤ 100%) | B ("B" is defined as 80%< substrate protein remaining %≤ 100%) | B ("B" is defined as 80%< substrate protein remaining %≤ 100%) | B ("B" is defined as 80%< substrate protein remaining %≤ 100%) | A ("A" is defined as 0% ≤ substrate protein remaining % ≤ 80%) | – | – | – | – | – | –
O=C1CCN(N2C(=O)c3ccc(CN4CCN(c5ccnc(Cl)c5Br)CC4)cc3C2=O)C(=O)N1 [GT-07168, 5-((4-(3-bromo-2-chloropyridin-4-yl)piperazin-1-yl)methyl)-2-(2,4-dioxotetrahydropyrimidin-1(2H)-yl)isoindoline-1,3-dione] | B ("B" is defined as 80%< substrate protein remaining %≤ 100%) | B ("B" is defined as 80%< substrate protein remaining %≤ 100%) | A ("A" is defined as 0% ≤ substrate protein remaining % ≤ 80%) | B ("B" is defined as 80%< substrate protein remaining %≤ 100%) | B ("B" is defined as 80%< substrate protein remaining %≤ 100%) | A ("A" is defined as 0% ≤ substrate protein remaining % ≤ 80%) | – | – | – | – | – | –
O=C1CCN(N2Cc3cc(CN4CCC(c5ccnc6cc(F)ccc56)CC4)ccc3C2=O)C(=O)N1 [GT-07645, 1-(5-((4-(7-fluoroquinolin-4-yl)piperidin-1-yl)methyl)-1-oxoisoindolin-2-yl)dihydropyrimidine-2,4(1H,3H)-dione] | – | – | – | – | – | – | B (80%< substrate protein remaining %≤ 100%) | A (0% ≤ substrate protein remaining % ≤ 80%) | B (80%< substrate protein remaining %≤ 100%) | B (80%< substrate protein remaining %≤ 100%) | B (80%< substrate protein remaining %≤ 100%) | A (0% ≤ substrate protein remaining % ≤ 80%)
O=C1CCN(N2C(=O)c3ccc(CN4CCC(c5ccnc6cc(F)ccc56)CC4)cc3C2=O)C(=O)N1 [GT-07689, 2-(2,4-dioxotetrahydropyrimidin-1(2H)-yl)-5-((4-(7-fluoroquinolin-4-yl)piperidin-1-yl)methyl)isoindoline-1,3-dione] | – | – | – | – | – | – | B (80%< substrate protein remaining %≤ 100%) | B (80%< substrate protein remaining %≤ 100%) | B (80%< substrate protein remaining %≤ 100%) | B (80%< substrate protein remaining %≤ 100%) | A (0% ≤ substrate protein remaining % ≤ 80%) | A (0% ≤ substrate protein remaining % ≤ 80%)
O=C1CCN(N2Cc3cc(CN4CCN(c5noc6ccncc56)CC4)ccc3C2=O)C(=O)N1 [GT-07497, 1-(5-((4-(isoxazolo[4,5-c]pyridin-3-yl)piperazin-1-yl)methyl)-1-oxoisoindolin-2-yl)dihydropyrimidine-2,4(1H,3H)-dione] | – | – | – | – | – | – | A (0% ≤ substrate protein remaining % ≤ 80%) | A (0% ≤ substrate protein remaining % ≤ 80%) | A (0% ≤ substrate protein remaining % ≤ 80%) | B (80%< substrate protein remaining %≤ 100%) | A (0% ≤ substrate protein remaining % ≤ 80%) | A (0% ≤ substrate protein remaining % ≤ 80%)
O=C1CCN(N2C(=O)c3ccc(CN4CCC(N5CCCc6cc(F)ccc65)CC4)cc3C2=O)C(=O)N1 [GT-07681, 2-(2,4-dioxotetrahydropyrimidin-1(2H)-yl)-5-((4-(6-fluoro-3,4-dihydroquinolin-1(2H)-yl)piperidin-1-yl)methyl)isoindoline-1,3-dione] | – | – | – | – | – | – | B (80%< substrate protein remaining %≤ 100%) | A (0% ≤ substrate protein remaining % ≤ 80%) | B (80%< substrate protein remaining %≤ 100%) | B (80%< substrate protein remaining %≤ 100%) | B (80%< substrate protein remaining %≤ 100%) | A (0% ≤ substrate protein remaining % ≤ 80%)
O=C1CCN(N2Cc3cc(CN4CCC(n5cnc6cc(F)ccc65)CC4)ccc3C2=O)C(=O)N1 [GT-07503, 1-(5-((4-(5-fluoro-1H-benzo[d]imidazol-1-yl)piperidin-1-yl)methyl)-1-oxoisoindolin-2-yl)dihydropyrimidine-2,4(1H,3H)-dione] | – | – | – | – | – | – | A (0% ≤ substrate protein remaining % ≤ 80%) | A (0% ≤ substrate protein remaining % ≤ 80%) | B (80%< substrate protein remaining %≤ 100%) | B (80%< substrate protein remaining %≤ 100%) | A (0% ≤ substrate protein remaining % ≤ 80%) | A (0% ≤ substrate protein remaining % ≤ 80%)
O=C1CCN(N2C(=O)c3ccc(CN4CCN(c5nccc(I)c5F)CC4)cc3C2=O)C(=O)N1 [GT-06970, 2-(2,4-dioxotetrahydropyrimidin-1(2H)-yl)-5-((4-(3-fluoro-4-iodopyridin-2-yl)piperazin-1-yl)methyl)isoindoline-1,3-dione] | A ("A" is defined as 0% ≤ substrate protein remaining % ≤ 80%) | B ("B" is defined as 80%< substrate protein remaining %≤ 100%) | A ("A" is defined as 0% ≤ substrate protein remaining % ≤ 80%) | B ("B" is defined as 80%< substrate protein remaining %≤ 100%) | B ("B" is defined as 80%< substrate protein remaining %≤ 100%) | B ("B" is defined as 80%< substrate protein remaining %≤ 100%) | – | – | – | – | – | –

Source: EP4722207A1, “OXOISOINDOLINYL-SUBSTITUTED TETRAHYDROPYRIMIDINEDIONE DERIVATIVE AND USE THEREOF” (Gluetacs Therapeutics (Shanghai) Co., Ltd., priority 2023, dated 2024)
